The test addresses T1, BRM (Homo sapiens, UniProt P51531).
T1 construct: In-Cell Western Screen of BRM Degradation in SW1573 Cells; endogenous in cells; host or cells: SW1573
Description: In-cell Western screen of BRM degradation in SW1573 cells (Dmax and DC50). It counts as cell-based. The method, boiled down: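 Adherent SW1573 cultures exposed to test compounds for 18-20 h were processed for in-cell Western after PFA fixation and detergent permeabilization. BRM degradation was reported as Dmax and DC50.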

[1] abbreviates: target protein degradation, read-out: BRM DC50.
The mark [2] stands for this setting: BRM degradation, SW1573 cells, read-out: DC50.
Where [3] appears, read: BRM degradation, SW1573 cells, tested at the top concentration of between 0.3 and 10 μM, read-out: Dmax (%) (% degraded).
Setting [4] is: BRM degradation, SW1573 cells, Table 2D, read-out: *DC50.
Where [5] appears, read: SW1573, % degraded, when tested at the top concentration of between 0.3 and 10 μM, read-out: BRM Dmax (%).
The mark [6] stands for this setting: BRM degradation, SW1573 cells, Table 2D, read-out: **Dmax (%) (% degraded).
[7] abbreviates: degradation of BRM, read-out: BRM DC50.

Like-named read-outs stand apart in the source and are kept apart here.

Usually DC50 stands for the midpoint of the concentration-degradation curve. A word on the Dmax: it is the greatest extent of degradation seen.

T1 sequence (P51531 whole entry): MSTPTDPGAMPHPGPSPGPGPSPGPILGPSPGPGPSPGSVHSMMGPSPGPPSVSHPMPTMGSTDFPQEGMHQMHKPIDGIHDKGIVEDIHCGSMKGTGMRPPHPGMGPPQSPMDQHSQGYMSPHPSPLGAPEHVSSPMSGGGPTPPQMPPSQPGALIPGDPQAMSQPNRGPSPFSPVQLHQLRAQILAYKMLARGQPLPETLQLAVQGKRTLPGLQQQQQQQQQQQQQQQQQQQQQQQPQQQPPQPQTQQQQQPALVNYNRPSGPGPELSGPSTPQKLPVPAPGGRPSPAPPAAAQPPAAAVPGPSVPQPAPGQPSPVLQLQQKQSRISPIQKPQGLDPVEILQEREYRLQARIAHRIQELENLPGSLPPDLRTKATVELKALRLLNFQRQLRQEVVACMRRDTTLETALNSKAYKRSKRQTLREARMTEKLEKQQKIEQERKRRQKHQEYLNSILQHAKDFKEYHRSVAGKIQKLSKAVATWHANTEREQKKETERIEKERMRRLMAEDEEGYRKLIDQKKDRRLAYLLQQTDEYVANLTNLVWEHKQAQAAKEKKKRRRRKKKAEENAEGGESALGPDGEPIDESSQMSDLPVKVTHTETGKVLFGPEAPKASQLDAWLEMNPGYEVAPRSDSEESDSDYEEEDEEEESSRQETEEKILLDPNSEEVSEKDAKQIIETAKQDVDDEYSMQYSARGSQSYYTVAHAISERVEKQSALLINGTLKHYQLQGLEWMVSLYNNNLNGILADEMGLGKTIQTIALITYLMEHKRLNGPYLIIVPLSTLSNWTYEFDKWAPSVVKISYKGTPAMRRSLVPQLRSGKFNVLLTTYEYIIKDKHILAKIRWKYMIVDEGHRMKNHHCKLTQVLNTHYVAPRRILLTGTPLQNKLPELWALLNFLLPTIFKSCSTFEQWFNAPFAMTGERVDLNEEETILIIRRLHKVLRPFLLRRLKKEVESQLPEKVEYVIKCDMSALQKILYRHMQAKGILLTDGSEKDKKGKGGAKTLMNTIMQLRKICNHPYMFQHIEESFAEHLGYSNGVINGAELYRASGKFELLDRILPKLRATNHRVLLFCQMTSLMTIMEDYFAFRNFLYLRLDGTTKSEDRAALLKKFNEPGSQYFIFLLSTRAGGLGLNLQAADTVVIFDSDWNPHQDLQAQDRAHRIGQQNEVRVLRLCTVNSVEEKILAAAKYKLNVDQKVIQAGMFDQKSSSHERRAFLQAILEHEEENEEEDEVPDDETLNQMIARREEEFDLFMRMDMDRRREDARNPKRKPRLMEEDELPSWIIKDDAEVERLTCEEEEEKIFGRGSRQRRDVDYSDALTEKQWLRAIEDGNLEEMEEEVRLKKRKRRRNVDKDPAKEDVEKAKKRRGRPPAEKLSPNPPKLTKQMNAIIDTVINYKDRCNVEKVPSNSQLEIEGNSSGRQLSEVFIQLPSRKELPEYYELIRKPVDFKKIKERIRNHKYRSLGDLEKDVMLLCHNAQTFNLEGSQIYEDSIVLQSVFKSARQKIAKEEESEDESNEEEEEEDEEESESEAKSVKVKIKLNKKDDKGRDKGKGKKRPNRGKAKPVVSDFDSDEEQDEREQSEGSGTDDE

With `Cc1ncsc1-c1ccc([C@H](C)NC(=O)[C@@H]2C[C@@H](O)CN2C(=O)[C@H](c2cc(OC/C=C/c3ncc(O[C@H]4C[C@H](Oc5cc(N6C7CCC6CN(c6cc(-c8ccccc8O)nnc6N)C7)ccn5)C4)cn3)no2)C(C)C)cc1` [compound 391, (2S,4R)-1-((2S)-2-(3-(((E)-3-(5-((1r,3S)-3-((4-(3-(3-amino-6-(2-hydroxyphenyl)pyridazin-4-yl)-3,8-diazabicyclo[3.2.1]octan-8-yl)pyridin-2-yl)oxy)cyclobutoxy)pyrimidin-2-yl)allyl)oxy)isoxazol-5-yl)-3-methylbutanoyl)-4-hydroxy-N-((S)-1-(4-(4-methylthiazol-5-yl)phenyl)ethyl)pyrrolidine-2-carboxamide], under setting [1], the DC50 is over 30 nM.
Take `COc1cc(-c2scnc2C)ccc1CNC(=O)[C@@H]1C[C@@H](O)CN1C(=O)[C@@H](c1cc(OCCN2CCC(O[C@H]3C[C@H](Oc4cc(N5C6CCC5CN(c5cc(-c7ccccc7O)nnc5N)C6)ccn4)C3)CC2)no1)C(C)C` [compound 215, (2S,4R)-1-((2R)-2-(3-(2-(4-((1r,3R)-3-((4-(3-(3-amino-6-(2-hydroxyphenyl)pyridazin-4-yl)-3,8-diazabicyclo[3.2.1]octan-8-yl)pyridin-2-yl)oxy)cyclobutoxy)piperidin-1-yl)ethoxy)isoxazol-5-yl)-3-methylbutanoyl)-4-hydroxy-N-(2-methoxy-4-(4-methylthiazol-5-yl)benzyl)pyrrolidine-2-carboxamide]: the DC50 under setting [2] was under 2.5 nM. For the same compound, the Dmax under setting [3] is over 75%.
Take `Cc1ncsc1-c1ccc([C@H](C)NC(=O)[C@@H]2C[C@@H](O)CN2C(=O)[C@H](c2cc(OCC[C@@H]3CCN(C[C@H]4C[C@H](Oc5cc(N6C7CCC6CN(c6cc(-c8ccccc8O)nnc6N)C7)ccn5)C4)C[C@@H]3C)no2)C(C)C)cc1` (racemic) [compound 543, (2S,4R)-1-((2S)-2-(3-(2-((3R,4S)-1-(((1r,3R)-3-((4-(3-(3-amino-6-(2-hydroxyphenyl)pyridazin-4-yl)-3,8-diazabicyclo[3.2.1]octan-8-yl)pyridin-2-yl)oxy)cyclobutyl)methyl)-3-methylpiperidin-4-yl)ethoxy)isoxazol-5-yl)-3-methylbutanoyl)-4-hydroxy-N-((S)-1-(4-(4-methylthiazol-5-yl)phenyl)ethyl)pyrrolidine-2-carboxamide]: under setting [4], the DC50 was over 30 nM.
Take `Cc1cnn(C)c1-c1ccc([C@H](C)NC(=O)[C@@H]2C[C@@H](O)CN2C(=O)[C@H](c2cc(OCCN3CCN(CCOc4cc(N5C6CCC5CN(c5cc(-c7ccccc7O)nnc5N)C6)ccn4)CC3)no2)C(C)C)cc1` [compound 193, (2S,4R)-1-((2S)-2-(3-(2-(4-(2-((4-(3-(3-amino-6-(2-hydroxyphenyl)pyridazin-4-yl)-3,8-diazabicyclo[3.2.1]octan-8-yl)pyridin-2-yl)oxy)ethyl)piperazin-1-yl)ethoxy)isoxazol-5-yl)-3-methylbutanoyl)-N-((S)-1-(4-(1,4-dimethyl-1H-pyrazol-5-yl)phenyl)ethyl)-4-hydroxypyrrolidine-2-carboxamide]: under setting [2], the DC50 was over 30 nM. The Dmax under setting [3] was over 75%.
For `Cc1ncsc1-c1ccc([C@H](C)NC(=O)[C@@H]2C[C@@H](O)CN2C(=O)[C@H](c2cc(N3CCN(C(C)(C)C4CCN(C[C@H]5C[C@H](Oc6cc(N7C8CCC7CN(c7cc(-c9ccccc9O)nnc7N)C8)ccn6)C5)CC4)CC3)no2)C(C)C)cc1` [compound 714, (2S,4R)-1-((2S)-2-(3-(4-(2-(1-(((1r,3r)-3-((4-(3-(3-amino-6-(2-hydroxyphenyl)pyridazin-4-yl)-3,8-diazabicyclo[3.2.1]octan-8-yl)pyridin-2-yl)oxy)cyclobutyl)methyl)piperidin-4-yl)propan-2-yl)piperazin-1-yl)isoxazol-5-yl)-3-methylbutanoyl)-4-hydroxy-N-((S)-1-(4-(4-methylthiazol-5-yl)phenyl)ethyl) pyrrolidine-2-carboxamide], the DC50 under setting [2] is over 30 nM.
With `Cc1ncsc1-c1ccc([C@H](C)NC(=O)[C@@H]2C[C@@H](O)CN2C(=O)[C@@H](c2cc(OCCN[C@H]3CC[C@@H](O[C@H]4C[C@@H](Oc5cc(N6C7CCC6CN(c6cc(-c8ccccc8O)nnc6N)C7)ccn5)C4)CC3)no2)C(C)C)cn1` [compound 388, (2S,4R)-1-((2R)-2-(3-(2-(((1S,4S)-4-((1r,3S)-3-((4-(3-(3-amino-6-(2-hydroxyphenyl)pyridazin-4-yl)-3,8-diazabicyclo[3.2.1]octan-8-yl)pyridin-2-yl)oxy)cyclobutoxy)cyclohexyl)amino)ethoxy)isoxazol-5-yl)-3-methylbutanoyl)-4-hydroxy-N-((S)-1-(6-(4-methylthiazol-5-yl)pyridin-3-yl)ethyl)pyrrolidine-2-carboxamide], the Dmax under setting [5] was over 75%. For the same compound, the DC50 under setting [1] fell in the range of 2.5 to 10 nM.
As to `CC(C)[C@H](C(=O)N1C[C@H](O)C[C@H]1C(=O)N[C@@H](C)c1ccc(C#N)cc1)c1cc(N2CCC(CN3CCC(O[C@H]4C[C@H](C#C[C@@H](C)n5cc(-c6cc(-c7ccccc7O)nnc6N)cn5)C4)CC3)CC2)no1` (single isomer, unassigned) [compound 697], the DC50 under setting [2] was over 30 nM.
For the compound `Cc1ncsc1-c1ccc([C@H](C)NC(=O)[C@@H]2C[C@@H](O)CN2C(=O)[C@@H](c2cc(OC[C@@H]3C[C@H]3c3ccc(O[C@H]4C[C@H](Oc5cc(N6C7CCC6CN(c6cc(-c8ccccc8O)nnc6N)C7)ccn5)C4)cn3)no2)C(C)C)cn1` [compound 480, (2S,4R)-1-((2R)-2-(3-(((1R,2R)-2-(5-((1r,3R)-3-((4-(3-(3-amino-6-(2-hydroxyphenyl)pyridazin-4-yl)-3,8-diazabicyclo[3.2.1]octan-8-yl)pyridin-2-yl)oxy)cyclobutoxy)pyridin-2-yl)cyclopropyl)methoxy)isoxazol-5-yl)-3-methylbutanoyl)-4-hydroxy-N-((S)-1-(6-(4-methylthiazol-5-yl)pyridin-3-yl)ethyl)pyrrolidine-2-carboxamide], under setting [5], the Dmax was over 75%. The DC50 under setting [1] is under 2.5 nM.
In the case of `Cc1ncsc1-c1ccc([C@H](C)NC(=O)[C@@H]2C[C@@H](O)CN2C(=O)[C@H](c2cc(OCCC3CCN(C[C@H]4C[C@H](N5CCC(CN6CCOC7(CCN(c8cc(-c9ccccc9O)nnc8N)CC7)C6)CC5)C4)CC3)no2)C(C)C)cc1` [compound 597, (2S,4R)-1-((S)-2-(3-(2-(1-(((1r,3S)-3-(4-((9-(3-amino-6-(2-hydroxyphenyl)pyridazin-4-yl)-1-oxa-4,9-diazaspiro[5.5]undecan-4-yl)methyl)piperidin-1-yl)cyclobutyl)methyl)piperidin-4-yl)ethoxy)isoxazol-5-yl)-3-methylbutanoyl)-4-hydroxy-N-((S)-1-(4-(4-methylthiazol-5-yl)phenyl)ethyl)pyrrolidine-2-carboxamide], under setting [6], the Dmax was over 75%. Also, under setting [4], the DC50 fell in the range of 10 to 30 nM.
On to `Cc1ncsc1-c1ccc([C@H](C)NC(=O)[C@@H]2C[C@@H](O)CN2C(=O)[C@@H](c2cc(OCCC3CCN(C[C@H]4C[C@H](Oc5cc(N6C7CCC6CN(c6cc(-c8ccccc8O)nnc6N)C7)ccn5)C4)CC3)no2)C(C)C)cc1` [compound 417, (2S,4R)-1-((2R)-2-(3-(2-(1-(((1r,3R)-3-((4-(3-(3-amino-6-(2-hydroxyphenyl)pyridazin-4-yl)-3,8-diazabicyclo[3.2.1]octan-8-yl)pyridin-2-yl)oxy)cyclobutyl)methyl)piperidin-4-yl)ethoxy)isoxazol-5-yl)-3-methylbutanoyl)-4-hydroxy-N-((S)-1-(4-(4-methylthiazol-5-yl)phenyl)ethyl)pyrrolidine-2-carboxamide], for which the greatest degradation seen (Dmax) under setting [5] is over 75%. Also, the DC50 under setting [7] is under 2.5 nM.
Take `CC(C)[C@@H](C(=O)N1C[C@H](O)C[C@H]1C(=O)N[C@@H](C)c1ccc(-c2c(F)cnn2C)cc1)c1cc(OCCN2CCN(CCOc3cc(N4C5CCC4CN(c4cc(-c6ccccc6O)nnc4N)C5)ccn3)CC2)no1` [compound 410, (2S,4R)-1-((2R)-2-(3-(2-(4-(2-((4-(3-(3-amino-6-(2-hydroxyphenyl)pyridazin-4-yl)-3,8-diazabicyclo[3.2.1]octan-8-yl)pyridin-2-yl)oxy)ethyl)piperazin-1-yl)ethoxy)isoxazol-5-yl)-3-methylbutanoyl)-N-((S)-1-(4-(4-fluoro-1-methyl-1H-pyrazol-5-yl)phenyl)ethyl)-4-hydroxypyrrolidine-2-carboxamide]: under setting [5], the Dmax was over 75%. In addition, the DC50 under setting [7] was under 2.5 nM.
On to `Cc1ncsc1-c1ccc([C@H](C)NC(=O)[C@@H]2C[C@@H](O)CN2C(=O)[C@@H](c2cc(OCC[C@@H]3CCN(C[C@H]4C[C@H](Oc5cc(N6C7CCC6CN(c6cc(-c8ccccc8O)nnc6N)C7)ccn5)C4)C[C@@H]3C)no2)C(C)C)cc1` (racemic) [compound 544, (2S,4R)-1-((2R)-2-(3-(2-((3R,4S)-1-(((1r,3R)-3-((4-(3-(3-amino-6-(2-hydroxyphenyl)pyridazin-4-yl)-3,8-diazabicyclo[3.2.1]octan-8-yl)pyridin-2-yl)oxy)cyclobutyl)methyl)-3-methylpiperidin-4-yl)ethoxy)isoxazol-5-yl)-3-methylbutanoyl)-4-hydroxy-N-((S)-1-(4-(4-methylthiazol-5-yl)phenyl)ethyl)pyrrolidine-2-carboxamide], for which the maximal degradation (Dmax) under setting [6] was over 75%. Further, the DC50 under setting [4] is under 2.5 nM.

Source of the values: patent US12539292B2, “BRM targeting compounds and associated methods of use” (Arvinas Operations, Inc., priority 2018, dated 2026).
